Reference: doi:10.1101/679977v1 (bioRxiv, 2019)
Square brackets hold non-standard residues; d marks the D form. Ends that are not written are not given here. Peptide text beside a SMILES is read from it.

Legend:
Beneficial strains = assay: Geometric mean of MICs; assay type: cell-based; conditions: geometric mean of MICs against beneficial strains; >128 counted as 256 μM
HEK293T cells = assay: Cytotoxicity MTT assay; assay type: cell-based, human; conditions: 24 h, 37°C, 128 μM peptide, three independent assays
E. coli ATCC25922 = assay: Salt, serum, acid and alkaline sensitivity; assay type: cell-based; conditions: for MIC, Control: absence of physiological salts, serum, acid and alkaline; for MIC, FeCl3: in presence of 4μM FeCl3 (final); for MIC, MgCl2: in presence of 1 mM MgCl2; for MIC, KCl: in presence of 4.5 mM KCl (final); for MIC, NaCl: in presence of 150 mM NaCl (final); for MIC, PH=2: peptide incubated at pH=2 for 4 h prior to MIC determination; for MIC, PH=4: peptide incubated at pH=4 for 4 h prior to MIC determination; for MIC, PH=10: peptide incubated at pH=10 for 4 h prior to MIC determination; for MIC, PH=12: peptide incubated at pH=12 for 4 h prior to MIC determination
E. coli = assay: Geometric mean of MICs, selectivity and targeting indices; assay type: cell-based; conditions: for TI Pathogenic strains (targeting index): GM(E. coli)/GM(other pathogenic strains); for TI Pathogenic strains (targeting index) / TI Beneficial strains (targeting index): smaller = greater specificity; for SI E. coli (selectivity index): MHC/GM (E. coli), MHC >128 counted as 256 μM, larger = greater cell selectivity; for TI All (TIall, targeting index): all strains, smaller = greater specificity for E. coli; for GM E. coli: geometric mean of MICs against the 6 E. coli strains, >128 counted as 256 μM; for TI Beneficial strains (targeting index): GM(E. coli)/GM(beneficial strains)
IPEC-J2 cells = assay: Cytotoxicity MTT assay; assay type: cell-based, porcine; conditions: 24 h, 37°C, 128 μM peptide, three independent assays
E. coli 25922 = assay: Outer membrane permeability; assay type: cell-based; conditions: 2 μM peptide, relative to 10 μg/mL polymyxin B, 5 mM HEPES pH 7.4

Molecule	GM Beneficial strains (Beneficial strains) [µM]	cells killed (HEK293T cells)	MIC, Control (E. coli ATCC25922) [µM]	MIC, FeCl3 (E. coli ATCC25922) [µM]	MIC, MgCl2 (E. coli ATCC25922) [µM]	MIC, KCl (E. coli ATCC25922) [µM]	MIC, NaCl (E. coli ATCC25922) [µM]	MIC, PH=2 (E. coli ATCC25922) [µM]	MIC, PH=4 (E. coli ATCC25922) [µM]	MIC, PH=10 (E. coli ATCC25922) [µM]	MIC, PH=12 (E. coli ATCC25922) [µM]	TI Pathogenic strains (targeting index) (E. coli)	SI E. coli (selectivity index) (E. coli)	TI All (TIall, targeting index) (E. coli)	GM E. coli (E. coli) [µM]	cells killed (IPEC-J2 cells)	TI Beneficial strains (targeting index) (E. coli)	outer membrane permeability (NPN uptake) (E. coli 25922) [%]	TIall lower than that of melittin (E. coli; from TIall) [times]	increase of specificity for E. coli relative to parental peptide 2 (E. coli; from TIall) [times]
WIKIWKKIIKKWKK [Peptide 10]	181.019	approximately 99%	8	8	64	8	32	8	8	8	8	0.707	40.315	0.376	6.350	~63%				
CC[C@H](C)[C@H](NC(=O)CNC(=O)[C@H]1CCCN1C(=O)[C@H](CCCCN)NC(=O)[C@H](Cc1c[nH]c2ccccc12)NC(=O)[C@@H](NC(=O)[C@H](CCCCN)NC(=O)[C@H](CCCCN)NC(=O)[C@@H](N)Cc1c[nH]c2ccccc12)[C@@H](C)CC)C(=O)N[C@@H](CCCCN)C(=O)N[C@@H](CCCCN)C(=O)N[C@@H](Cc1c[nH]c2ccccc12)C(=O)N[C@H](C(=O)N[C@@H](CCCCN)C(=O)O)[C@@H](C)CC [Peptide 2] (H-WKKIWK[dP]GIKKWIK-OH; N-terminus and C-terminus assumed)	256.000		16	16	32	16	>64	32	16	16	32	0.070	16.000	0.067	16.000		0.063			
CC[C@H](C)[C@H](NC(=O)CNC(=O)[C@H]1CCCN1C(=O)[C@H](CCCCN)NC(=O)[C@H](Cc1c[nH]c2ccccc12)NC(=O)[C@@H](NC(=O)[C@H](CCCCN)NC(=O)[C@H](CCCCN)NC(=O)[C@@H](N)Cc1c[nH]c2ccccc12)[C@@H](C)CC)C(=O)N[C@@H](CCCCN)C(=O)N[C@@H](CCCCN)C(=O)N[C@@H](Cc1c[nH]c2ccccc12)C(=O)N[C@H](C(=O)N[C@@H](CCCCN)C(=O)NCC(=O)NCC(=O)NCC(=O)N[C@@H](CCC(N)=O)C(=O)N[C@@H](CCCCN)C(=O)N[C@@H](CCCNC(=N)N)C(=O)N1CCC[C@H]1C(=O)N[C@@H](CCCNC(=N)N)C(=O)N[C@H](C(=O)N[C@@H](CCCNC(=N)N)C(=O)N[C@@H](CC(C)C)C(=O)N[C@@H](CO)C(=O)N[C@@H](C)C(=O)O)C(C)C)[C@@H](C)CC [Peptide 11] (H-WKKIWK[dP]GIKKWIKGGGQKRPRVRLSA-OH; N-terminus and C-terminus assumed)	256.000		2	4	16	2	32	4	4	2	4	0.020	80.630	0.028	3.175			61	31	2.4
QKRPRVRLSA [Peptide 14, reference compound]	256.000		64	>64	>64	>64	>64	64	>64	>64	64	0.397	2.520	0.397	101.594		0.397			
CC[C@H](C)[C@H](NC(=O)CNC(=O)[C@H]1CCCN1C(=O)[C@H](CCCCN)NC(=O)[C@H](Cc1c[nH]c2ccccc12)NC(=O)[C@@H](NC(=O)[C@H](CCCCN)NC(=O)[C@H](CCCCN)NC(=O)[C@H](Cc1c[nH]c2ccccc12)NC(=O)[C@@H](NC(=O)[C@H](CCCCN)NC(=O)[C@H](CCCCN)NC(=O)[C@@H](N)Cc1c[nH]c2ccccc12)[C@@H](C)CC)[C@@H](C)CC)C(=O)N[C@@H](CCCCN)C(=O)N[C@@H](CCCCN)C(=O)N[C@@H](Cc1c[nH]c2ccccc12)C(=O)N[C@H](C(=O)N[C@@H](CCCCN)C(=O)N[C@@H](CCCCN)C(=O)N[C@@H](Cc1c[nH]c2ccccc12)C(=O)N[C@H](C(=O)N[C@@H](CCCCN)C(=O)O)[C@@H](C)CC)[C@@H](C)CC [Peptide 4] (H-WKKIWKKIWK[dP]GIKKWIKKWIK-OH; N-terminus and C-terminus assumed)	50.797	approximately 99%	2	2	2	2	2	2	2	2	2	0.445		0.233	1.122	approximately 99%	0.022			
CC[C@H](C)[C@H](NC(=O)CNC(=O)[C@H]1CCCN1C(=O)[C@H](CCCCN)NC(=O)[C@H](Cc1c[nH]c2ccccc12)NC(=O)[C@@H](NC(=O)[C@H](CCCCN)NC(=O)[C@H](CCCCN)NC(=O)[C@H](Cc1c[nH]c2ccccc12)NC(=O)[C@@H](NC(=O)[C@@H](N)CCCCN)[C@@H](C)CC)[C@@H](C)CC)C(=O)N[C@@H](CCCCN)C(=O)N[C@@H](CCCCN)C(=O)N[C@@H](Cc1c[nH]c2ccccc12)C(=O)N[C@H](C(=O)N[C@@H](CCCCN)C(=O)N[C@@H](CCCCN)C(=O)N[C@@H](Cc1c[nH]c2ccccc12)C(=O)O)[C@@H](C)CC [Peptide 3] (H-KIWKKIWK[dP]GIKKWIKKW-OH; N-terminus and C-terminus assumed)	256.000		4	4	8	4	16	4	4	4	4	0.079	90.523		2.828		0.011			
CC[C@H](C)[C@H](NC(=O)CNC(=O)[C@H]1CCCN1C(=O)[C@H](CCCCN)NC(=O)[C@H](Cc1c[nH]c2ccccc12)NC(=O)[C@@H](NC(=O)[C@H](CCCCN)NC(=O)[C@H](CCCCN)NC(=O)[C@@H](N)Cc1c[nH]c2ccccc12)[C@@H](C)CC)C(=O)N[C@@H](CCCCN)C(=O)N[C@@H](CCCCN)C(=O)N[C@@H](Cc1c[nH]c2ccccc12)C(=O)N[C@H](C(=O)N[C@@H](CCCCN)C(=O)NCC(=O)NCC(=O)NCC(=O)N[C@@H](CCCCN)C(=O)O)[C@@H](C)CC [Peptide 5] (H-WKKIWK[dP]GIKKWIKGGGK-OH; N-terminus and C-terminus assumed)	256.000		8	8	32	8	>64	32	32	16	16	0.050	22.627	0.047	11.314		0.044			
